# Laboratory results as given in PubChem BioAssay (NCI).
#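 Cultured in 96-well plates, cells were exposed to test compound for 48 hours across five concentrations. Definition used: TGI = concentration required for complete inhibition of growth.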
# Columns and labels:
# Experiment in all cases: NCI tumour cell line growth inhibition, 48 h
# OVCAR-3 ovarian = tested on: OVCAR-3 ovarian
# NCI-H522 lung = tested on: NCI-H522 lung
# SW-620 colon = tested on: SW-620 colon
# ACHN renal = tested on: ACHN renal
# RPMI-8226 leukemia = tested on: RPMI-8226 leukemia
# SN12C renal = tested on: SN12C renal
# CAKI-1 renal = tested on: CAKI-1 renal
# K-562 leukemia = tested on: K-562 leukemia
# M14 melanoma = tested on: M14 melanoma
# U251 CNS = tested on: U251 CNS
# HCT-15 colon = tested on: HCT-15 colon
# MALME-3M melanoma = tested on: MALME-3M melanoma
# UO-31 renal = tested on: UO-31 renal
# HT29 colon = tested on: HT29 colon
# BT-549 breast = tested on: BT-549 breast
# T-47D breast = tested on: T-47D breast
# NCI-H226 lung = tested on: NCI-H226 lung
# SR leukemia = tested on: SR leukemia
# MDA-MB-231 breast = tested on: MDA-MB-231 breast
# EKVX NSCLC = tested on: EKVX NSCLC
# SK-MEL-2 melanoma = tested on: SK-MEL-2 melanoma
# SK-OV-3 ovarian = tested on: SK-OV-3 ovarian
# UACC-62 melanoma = tested on: UACC-62 melanoma
# LOX IMVI melanoma = tested on: LOX IMVI melanoma
# SK-MEL-5 melanoma = tested on: SK-MEL-5 melanoma
# MDA-MB-435 = tested on: MDA-MB-435
# SF-268 CNS = tested on: SF-268 CNS
# HCT-116 colon = tested on: HCT-116 colon
# COLO 205 colon = tested on: COLO 205 colon
# SK-MEL-28 melanoma = tested on: SK-MEL-28 melanoma
# OVCAR-4 ovarian = tested on: OVCAR-4 ovarian
# DU-145 prostate = tested on: DU-145 prostate
# SF-295 CNS = tested on: SF-295 CNS
# A549 NSCLC = tested on: A549 NSCLC
# NCI-H23 lung = tested on: NCI-H23 lung
# OVCAR-5 ovarian = tested on: OVCAR-5 ovarian
# HOP-62 NSCLC = tested on: HOP-62 NSCLC
# IGROV1 ovarian = tested on: IGROV1 ovarian
# 786-0 renal = tested on: 786-0 renal
# OVCAR-8 ovarian = tested on: OVCAR-8 ovarian
# PC-3 prostate = tested on: PC-3 prostate
# KM12 colon = tested on: KM12 colon
# HCC-2998 colon = tested on: HCC-2998 colon
# A498 renal = tested on: A498 renal
# HL-60(TB) leukemia = tested on: HL-60(TB) leukemia
# HS 578T breast = tested on: HS 578T breast
# NCI-H460 lung = tested on: NCI-H460 lung
# RXF 393 renal = tested on: RXF 393 renal
# NCI/ADR-RES ovarian = tested on: NCI/ADR-RES ovarian
# SNB-75 CNS = tested on: SNB-75 CNS
# MCF7 breast = tested on: MCF7 breast
# MOLT-4 leukemia = tested on: MOLT-4 leukemia
# CCRF-CEM leukemia = tested on: CCRF-CEM leukemia
# SNB-19 CNS = tested on: SNB-19 CNS
# MDA-N = tested on: MDA-N
# UACC-257 melanoma = tested on: UACC-257 melanoma
# HOP-92 NSCLC = tested on: HOP-92 NSCLC
# SF-539 CNS = tested on: SF-539 CNS
# TK-10 renal = tested on: TK-10 renal
compound,measurement,setting,value
COc1cc(OC)nc(-n2c(N)c(C(=O)O)c3ccc([N+](=O)[O-])cc3c2=O)n1,TGI,OVCAR-3 ovarian,> 100 µM
same,TGI,NCI-H522 lung,> 100 µM
same,TGI,SW-620 colon,> 100 µM
same,TGI,ACHN renal,> 100 µM
same,TGI,RPMI-8226 leukemia,> 100 µM
same,TGI,SN12C renal,> 100 µM
same,TGI,CAKI-1 renal,> 100 µM
same,TGI,K-562 leukemia,> 100 µM
same,TGI,M14 melanoma,> 100 µM
same,TGI,U251 CNS,> 100 µM
same,TGI,HCT-15 colon,> 100 µM
same,TGI,MALME-3M melanoma,> 100 µM
same,TGI,UO-31 renal,> 100 µM
same,TGI,HT29 colon,> 100 µM
same,TGI,BT-549 breast,> 100 µM
same,TGI,T-47D breast,> 100 µM
same,TGI,NCI-H226 lung,> 100 µM
same,TGI,SR leukemia,> 100 µM
same,TGI,MDA-MB-231 breast,> 100 µM
same,TGI,EKVX NSCLC,> 100 µM
same,TGI,SK-MEL-2 melanoma,> 100 µM
same,TGI,SK-OV-3 ovarian,> 100 µM
same,TGI,UACC-62 melanoma,> 100 µM
same,TGI,LOX IMVI melanoma,> 100 µM
same,TGI,SK-MEL-5 melanoma,> 100 µM
same,TGI,MDA-MB-435,> 100 µM
same,TGI,SF-268 CNS,> 100 µM
same,TGI,HCT-116 colon,> 100 µM
same,TGI,COLO 205 colon,> 100 µM
same,TGI,SK-MEL-28 melanoma,> 100 µM
same,TGI,OVCAR-4 ovarian,> 100 µM
same,TGI,DU-145 prostate,> 100 µM
same,TGI,SF-295 CNS,> 100 µM
same,TGI,A549 NSCLC,> 100 µM
same,TGI,NCI-H23 lung,> 100 µM
same,TGI,OVCAR-5 ovarian,> 100 µM
same,TGI,HOP-62 NSCLC,> 100 µM
same,TGI,IGROV1 ovarian,> 100 µM
same,TGI,786-0 renal,> 100 µM
same,TGI,OVCAR-8 ovarian,> 100 µM
same,TGI,PC-3 prostate,> 100 µM
same,TGI,KM12 colon,> 100 µM
same,TGI,HCC-2998 colon,> 100 µM
same,TGI,A498 renal,> 100 µM
same,TGI,HL-60(TB) leukemia,> 100 µM
same,TGI,HS 578T breast,> 100 µM
same,TGI,NCI-H460 lung,> 100 µM
same,TGI,RXF 393 renal,> 100 µM
same,TGI,NCI/ADR-RES ovarian,> 100 µM
same,TGI,SNB-75 CNS,> 100 µM
same,TGI,MCF7 breast,> 100 µM
same,TGI,MOLT-4 leukemia,> 100 µM
same,TGI,CCRF-CEM leukemia,> 100 µM
same,TGI,SNB-19 CNS,> 100 µM
same,TGI,MDA-N,> 100 µM
S=C1Cc2c(-c3ccccc3)cc(-c3ccc(Cl)cc3)nc2-c2ccccc2N1,TGI,OVCAR-3 ovarian,9.9 µM
same,TGI,NCI-H522 lung,> 24.2 µM
same,TGI,SW-620 colon,11.6 µM
same,TGI,ACHN renal,2.69 µM
same,TGI,RPMI-8226 leukemia,> 100 µM
same,TGI,SN12C renal,5.26 µM
same,TGI,CAKI-1 renal,3.33 µM
same,TGI,M14 melanoma,> 38.5 µM
same,TGI,U251 CNS,2.34 µM
same,TGI,HCT-15 colon,> 54.7 µM
same,TGI,MALME-3M melanoma,13 µM
same,TGI,UO-31 renal,> 24 µM
same,TGI,HT29 colon,15.2 µM
same,TGI,BT-549 breast,37.9 µM
same,TGI,T-47D breast,> 57.3 µM
same,TGI,NCI-H226 lung,> 31.9 µM
same,TGI,SR leukemia,> 100 µM
same,TGI,MDA-MB-231 breast,5.22 µM
same,TGI,EKVX NSCLC,> 27.1 µM
same,TGI,SK-MEL-2 melanoma,20.9 µM
same,TGI,SK-OV-3 ovarian,7.26 µM
same,TGI,UACC-62 melanoma,> 20.7 µM
same,TGI,LOX IMVI melanoma,> 46.8 µM
same,TGI,UACC-257 melanoma,22.2 µM
same,TGI,SK-MEL-5 melanoma,> 100 µM
same,TGI,MDA-MB-435,> 38.8 µM
same,TGI,SF-268 CNS,6.8 µM
same,TGI,HCT-116 colon,13.7 µM
same,TGI,COLO 205 colon,> 42 µM
same,TGI,SK-MEL-28 melanoma,> 31.9 µM
same,TGI,HOP-92 NSCLC,3.53 µM
same,TGI,OVCAR-4 ovarian,1.71 µM
same,TGI,DU-145 prostate,53.1 µM
same,TGI,SF-295 CNS,18.9 µM
same,TGI,A549 NSCLC,> 33.9 µM
same,TGI,NCI-H23 lung,19.8 µM
same,TGI,OVCAR-5 ovarian,51.4 µM
same,TGI,HOP-62 NSCLC,3.16 µM
same,TGI,IGROV1 ovarian,4.36 µM
same,TGI,OVCAR-8 ovarian,4.64 µM
same,TGI,SF-539 CNS,10.8 µM
same,TGI,PC-3 prostate,30.9 µM
same,TGI,KM12 colon,51.3 µM
same,TGI,HCC-2998 colon,> 36.8 µM
same,TGI,A498 renal,4.27 µM
same,TGI,TK-10 renal,8.41 µM
same,TGI,HL-60(TB) leukemia,> 100 µM
same,TGI,HS 578T breast,4.23 µM
same,TGI,NCI-H460 lung,> 100 µM
same,TGI,RXF 393 renal,11.2 µM
same,TGI,NCI/ADR-RES ovarian,> 27.3 µM
same,TGI,SNB-75 CNS,3.14 µM
same,TGI,MCF7 breast,> 72.6 µM
same,TGI,MOLT-4 leukemia,> 100 µM
same,TGI,CCRF-CEM leukemia,> 100 µM
same,TGI,SNB-19 CNS,4.14 µM
same,TGI,MDA-N,16.2 µM
